Here are results for 7 substances from article PMC9692552, “Activity and Synergy of Cu-ATCUN Antimicrobial Peptides” (International Journal of Molecular Sciences, 2022).

The MIC is the lowest concentration found to suppress growth.

Read-outs that look alike come from different tables or passages of the source. Ends that are not written are not given here. Bounds are passed on as bounds.

Series [1] relates to E. coli 25922. To be noted: cited from earlier work. The source says:
(§1) Table 2 MIC Values (µM) for SMAP-29 Derivatives. * Previously reported data from reference r comparison. | column: OV3 *; Cu-1 *; Cu-2 *; Cu-3 *; Cu-4 * || Table 4 MIC values for antimicrobial peptides utilized in this study. MIC values for a variety of the presented peptides have been previously determined in alternative conditions; values here are the result of experimental efforts to determine MICs under the conditions utilized for further study of FIC potential, with the exception of Sub5 and Sub5-01, previously characterized in our laboratory, w | column: Sub5; Sub5-01

For another series, the system named is E. faecium 700221 (VRE). To be noted: cited from earlier work.
Excerpt: as §1

The next series deals with P. aeruginosa 27583. To be noted: cited from earlier work.
Excerpt: as §1

Series [2] deals with A. baumannii BAA747. To be noted: cited from earlier work.
Excerpt: as §1

The subject of another series is K. pneumoniae 700603. Particulars: cited from earlier work.
Excerpt: as §1

The subject of another series is S. aureus 43300 (MRSA). Particulars: cited from earlier work.
Excerpt: as §1

The test system of series [3] is E. coli 25922. Particulars: single peptide on the FIC plate, cited from earlier work. The text has this:
Figure 6 Summary of peptide interactions in E. coli 25922 from data presented in Results and Supplemental Material. Synergistic (or non-synergistic) interactions for CP10A, TempL, OV3-00 and OV3-01 with other peptides are grouped as shown. Parental and ATCUN derivatives are outlined in the same shape with the average FIC value shown in parentheses. TEXT PRINTED IN THE PICTURE: Sub5: E. coli 25922, CP10A, Synergistic: (0.4); E. coli 25922, TempL, Additive/Indifferent: (1) | Sub5-01: E. coli 25922, CP10A, Synergistic: (0.42); E. coli 25922, TempL, Additive/Indifferent: (0.78) | Mag2-01: E. coli ... || page 3: For Tables S3-S10: FIC Index = [A]/[MICA] + [B]/[MICB], where [A] and [B] are the concentrations of respective peptides at which no growth was observed when dosed in combination, and [MICA] and [MICB] are the concentrations where no growth was observed when dosed separately. The data from each experiment repeated in duplicate or triplicate is shown and bolded data in the final row is the average FIC value. Error is reported as the standard deviation of the mean. Table S3. FIC values for Interactions of CP10A and TempL in E. coli 25922. * Previously reported data from reference for ... || page 4: Table S4. FIC values for the non-ATCUN containing parental peptides in E. coli 25922. A CP10A CP10A CP10A TempL TempL TempL TempL B Sub5 13 Mag2 OV3-00 Sub5 TRP Mag2 OV3-00 [A] 2/4/4 2/2/1 2/2/0.5 2/2/2 1/1/1 0.25/1/2 2/2/2 MICA 16/16/16 4/4/2 4/4/4 4/4/4 2/4/2 4/4/4 16/16/16 [B] 1/0.5/0.25 2/2/2 0.5/1/1 4/4/4 4/4/4 4/2/0.125 4/1/1 MICB 4/2/4 4/4/4 2/2/2 8/8/8 8/8/8 8/8/8 8/2/2 FIC 0.375/0.328/0.5 1/1/1 0.75/1/0.625 1/1/1 1/0.75/1 0.56/0.5/0.52 0.625/0.625/0.625 FICAvg 0.40 ± 0.04 1 0.78 ± 0.2 1 0.9 ± 0.14 0.53 ± 0.03 0.625 Table S5. FIC Values for ATCUN peptide derivatives in MRSA 433 ...

Series [4] relates to E. coli 25922. Nature of the series: FIC of peptide pairs (two-way dilution, 96-well plate). It is filed as cell-based, Escherichia coli. Particulars: single peptide on the FIC plate. The protocol:
(§2) Determining MIC values informed decisions on testing peptides in combination. Fractional inhibitory concentrations determine the ability of test articles to act in concert against a pathogen. FIC determination is experimentally similar to MIC determination, except one test article is diluted down the wells and another is diluted across the wells of the 96-well plate in order to test the synergism of two peptides. […] Synergy is defined as an FIC of less than or equal to 0.5, meaning there is a four-fold reduction in the concentration of each peptide required for inhibition. Any number above 4 indicates a deleterious interaction that reduces the effectiveness of each peptide, and a value between 0.5 and 1 can be considered additive (Equation (2)).
(§3) Fractional inhibitory concentrations (FICs) were determined in a manner similar to MIC determinations but with serial dilutions of two peptides running both horizontally and vertically across the 96-well plate. Determination of the FIC can be seen in Equation (2), where FIC is the fractional inhibitory concentration, [A] is the concentration of substrate A at MIC in combination, [B] is the concentration of substrate B at MIC in combination, and MICA and MICB are the MIC of substrate A and substrate B, respectively. FIC = fractional inhibitory concentration, [A] = concentration of A at MIC in combination, [B] = concentration of B at MIC in combination, MICA = minimum inhibitory concentration of A, and MICB = minimum inhibitory concentration of B. When FIC ≤ 0.5 the results are synergistic. If FIC > 4, the results are antagonistic, and when FIC > 0.5, the results are indifferent or additive. (2) FIC=[A]/MICA+ [B]/MICB

Series [5] relates to A. baumannii BAA747. Set-up: method as in ref 13 of the supplement ([11] in main text). Particulars: Acinetobacter baumannii, single peptide on the FIC plate, ref 13 of the supplement ([11] in main text), cited from earlier work.
Series [6] deals with MRSA 43300. Further details: method as in ref [13] of the supplement ([11] in main text). Particulars: single peptide on the FIC plate, cited from earlier work.
For series [7], the system named is MRSA 43300. Nature of the series: FIC of peptide pairs (two-way dilution, 96-well plate). It is filed as cell-based, S. aureus. Particulars: single peptide on the FIC plate. The protocol: as §2, §3
The conditions of series [8]: in SDS, as previously reported, cited from earlier work. The source says:
Table 1 SMAP-29 derivatives used in this study and others with sequences and defining characteristics. ^a Estimated charge calculated from Innovagen’s peptide property calculator. ^b The helical activity of peptides as previously reported in the referenced manuscripts. ND: not determined. | column: % Helical (SDS) ^b

The mark [9] stands for this setting: taken from earlier work, ref [7].
Setting [10] is: replicate 1, ref [13] of the supplement ([11] in main text).
Setting [11] is: replicate 2, ref [13] of the supplement ([11] in main text).
[12] abbreviates: replicate 3, ref [13] of the supplement ([11] in main text).
Where [13] appears, read: previously reported data, ref [8].
The mark [14] stands for this setting: P. aeruginosa (27583), previously reported data, ref [8].

Turning to “RRWKIVVIRWRR-NH2 [Sub5, bactenecin derivative]”, the MIC was 3.3 µM in the series with E. coli 25922 [1] (setting [9]); 0.5 µM in the series with E. faecium 700221 (VRE) (setting [9]); 4 µM in the series on P. aeruginosa 27583 (P. aeruginosa 27583, taken from earlier work, ref [7]); 0.8 µM in the series on A. baumannii BAA747 [2] (setting [9]); 1.7 µM in the series with K. pneumoniae 700603 (setting [9]); 2 µM in the series with S. aureus 43300 (MRSA) (setting [9]). In addition, the “MICA/MICB, concentration with no growth when dosed separately” value (“MICA/MICB, concentration with no growth” for short) is recorded as 4 µM in the series on E. coli 25922 [3] (setting [10]); 2 µM in the series on E. coli 25922 [3] (setting [11]); 4 µM in the series on E. coli 25922 [3] (setting [12]); 8 µM in the series with E. coli 25922 [4] (replicate 1); 8 µM in the series with E. coli 25922 [4] (replicate 2); 8 µM with E. coli 25922 [4] (replicate 3). The “MICA/MICB, concentration with no growth” value with A. baumannii BAA747 [5] (replicate 1) is 2 µM; in the series with A. baumannii BAA747 [5] (replicate 2), 2 µM; in the series with A. baumannii BAA747 [5] (replicate 3) it was 2 µM; with MRSA 43300 [6] (setting [10]), 1 µM; in the series with MRSA 43300 [6] (setting [11]) it was 2 µM; in the series on MRSA 43300 [6] (setting [12]), 2 µM. Further, the “MICA/MICB, concentration with no growth” value with MRSA 43300 [7] (replicate 1), with MRSA 43300 [7] (replicate 2) and in the series on MRSA 43300 [7] (replicate 3) was 4 µM throughout.

For the substance “GGHIRRIIRKIIHIIKK-NH2 [Cu-3, ATCUN-OV3 derivative from the authors' earlier work]”, the MIC in the series with E. coli 25922 [1] (setting [13]) is >16 µM; in the series on E. faecium 700221 (VRE) (setting [13]), 8 µM; in the series on P. aeruginosa 27583 (setting [14]), >16 µM; with A. baumannii BAA747 [2] (setting [13]), 5.3 µM; in the series with K. pneumoniae 700603 (setting [13]), 16 µM; with S. aureus 43300 (MRSA) (setting [13]), 16 µM. In series [8] (ref [8]), the “% Helical (SDS)” value was 35% [8].

With “KNLRRIIRKIIHIIKKYGPTILRIIRIIG [OV, SMAP-29 derivative]”, in series [8] (ref [17]), the “% Helical (SDS)” value is 86% [17].

On to “GGHIRRIIRKIIHIIKKGGC-NH2 [Cu-4, ATCUN-OV3 derivative from the authors' earlier work]”, for which the minimal inhibitory concentration (MIC) in the series with E. coli 25922 [1] (setting [13]) is on record as 1.3 µM; with E. faecium 700221 (VRE) (setting [13]) it was 3.3 µM; in the series with P. aeruginosa 27583 (setting [14]), 4 µM; in the series on A. baumannii BAA747 [2] (setting [13]), 10.7 µM; in the series on K. pneumoniae 700603 (setting [13]), 8 µM; in the series with S. aureus 43300 (MRSA) (setting [13]) it was 1.5 µM. For the same substance, the “% Helical (SDS)” value in series [8] (ref [8]) was 64% [8].

Take “IRRIIRKIIHIIKK-NH2 [OV3, SMAP-29 derivative, parental peptide of Cu-1 to Cu-4]”: the MIC was >16 µM in the series on E. coli 25922 [1] (setting [13]); 16 µM in the series with E. faecium 700221 (VRE) (setting [13]); 16 µM in the series with P. aeruginosa 27583 (setting [14]); 1 µM in the series on A. baumannii BAA747 [2] (setting [13]); >16 µM in the series with K. pneumoniae 700603 (setting [13]); >16 µM with S. aureus 43300 (MRSA) (setting [13]). Besides, the “% Helical (SDS)” value in [8] (ref [8]) was 38% [8].

Regarding “GGHGIRRIIRKIIHIIKKGGC-NH2 [Cu-2, ATCUN-OV3 derivative from the authors' earlier work]”, the MIC is recorded as 3 µM in the series with E. coli 25922 [1] (setting [13]); 8 µM in the series on E. faecium 700221 (VRE) (setting [13]); 12 µM with P. aeruginosa 27583 (setting [14]); 9.3 µM in the series with A. baumannii BAA747 [2] (setting [13]); >16 µM with K. pneumoniae 700603 (setting [13]); 4 µM with S. aureus 43300 (MRSA) (setting [13]). The “% Helical (SDS)” value in series [8] (ref [8]) was 56% [8].

On to “GGHGIRRIIRKIIHIKK-NH2 [Cu-1, ATCUN-OV3 derivative from the authors' earlier work]”, for which the MIC is >16 µM in the series on E. coli 25922 [1] (setting [13]); 16 µM in the series on E. faecium 700221 (VRE) (setting [13]); >16 µM in the series on P. aeruginosa 27583 (setting [14]); 2.7 µM in the series on A. baumannii BAA747 [2] (setting [13]); 16 µM in the series on K. pneumoniae 700603 (setting [13]); 16 µM with S. aureus 43300 (MRSA) (setting [13]). Moreover, the “% Helical (SDS)” value in series [8] (ref [8]) was 14% [8].
